Experimental data published in patent US20240398831A1, “COMPOSITIONS COMPRISING SMALL MOLECULE REGULATORS OF TUMOR IMMUNITY AND METHODS OF USING SAME” (Duke University, priority 2021, published 2024).

Test system: CD68+ monocytes/TAMs
Test: Single cell RNA sequencing of tumor infiltrating immune cells from iBP tumors
Format: in vivo, mouse
Text: Single Cell RNA sequencing. iBP tumors (three) were pooled and a single cell suspension was isolated. Live tumor infiltrating immune cells (CD45^+ L/D^−) were isolated by cell sorting and resuspended in PBS+0.04% BSA at a concentration of 1000 cells/μL. In total, 10,000 cells were loaded on the 10× Genomics Chromium Controller Single-Cell Instrument (10× Genomics) mixed with reverse transcription reagents along with gel beads and oil to generate single-cell gel beads in emulsions (GEMs). GEM-RT was performed in an Eppendorf Mastercycler Pro (cat #950030020, Eppendorf): 53° C. for 45 min; 85° C. for 5 min; then held at 4° C. After reverse transcription, GEMs were disrupted and the single-stranded cDNA was purified using Dynabeads MyOne Silane beads (cat #37002D, Thermo Fisher Scientific). cDNA was amplified using the Eppendorf Mastercycler Pro (cat #950030020, Eppendorf): 98° C. for 3 min; cycled 11×: 98° C. for 15 s, 67° C. for 20 s, and 72° C. for 1 min; 72° C. for 1 min; held at 4° C. The amplified cDNA product was purified with the SPRIselect Reagent Kit (0.6×SPRI) (cat #B23318, Beckman Coulter). Indexed sequencing libraries were constructed using the reagents in the Chromium Single-Cell 3′ version 3 Library Kit, following these steps: (1) fragmentation, end repair and A-tailing; (2) SPRIselect cleanup; (3) adapter ligation; (4) post ligation cleanup with SPRIselect; (5) sample index PCR; (6) PostindexPCR cleanup. The barcoded sequencing libraries were analyzed using quantitative PCR (cat #KK4824, KAPA Biosystems Library Quantification Kit for Illumina platforms). Sequencing libraries were transferred to the Duke University Center for Genomic and Computational Biology (GCB) and were loaded on a NovaSeq6000 (Illumina) for sequencing.
scRNA seq data analysis. Sequencing data was de-multiplexed, trimmed, filtered, aligned, and quantified using the Cell Ranger pipeline (10× Genomics). Reads were aligned to CSC mm10 transcriptome and UMI count matrices for each sample was obtained. The Seurat v3.1 package was used to count matrices. For each sample, cells that express <200 or >2000 genes and cells that express >5% of mitochondrial genes were removed. Highly variable genes were identified and used for principal component analysis. Cell subpopulations were identified using the ‘FindNeighbors’ function with first 30 PCs and ‘FindClusters’ function from Seurat R package with default resolution parameters. Cells were then clustered and visualized using uniform manifold approximation and projection (UMAP) (Liu, Int. J. Mol. Sci. 2020, 21, 16). DE Wilcoxon test analysis was used to identify genes that define a cluster using known cell type signatures and genes that differ within clusters between treatments.
Pseudotime Analysis. To infer the developmental trajectories in the monocyte/macrophage lineages, Monocle3 was used to perform the pseudotime analysis where UMAP coordinates from Seurat were used as input (Cao et al., Nature 2019, 566, 498-502). The graphtest function implemented in Monocle3 was used to find genes that vary with pseudotime where genes with q<0.01 were identified as pseudotime-dependent genes. Cells were divided into four pseudotime blocks (e.g., 0-5, 5-10, 10-15, and 15-21) based on their pseudotime estimate.

[1] = CD68+ cells, Genes down-regulated upon E2 treatment
[2] = CD68+ cells, Genes up-regulated upon E2 treatment

## 17β-estradiol [E2]
[1]
  AA467197 avg_logFC: −1.1474
  Actg1 avg_logFC: −0.2725
  Adam8 avg_logFC: −0.5315
  Arg1 avg_logFC: −1.491
  Arl4c avg_logFC: −0.3255
  Ass1 avg_logFC: −0.2981
  B4galt1 avg_logFC: −0.2593
  Bhlhe40 avg_logFC: −0.4214
  Bnip3 avg_logFC: −0.3241
  Cbl avg_logFC: −0.2587
  Ccl24 avg_logFC: −1.196
  Cd44 avg_logFC: −0.3636
  Cd53 avg_logFC: −0.2831
  Cdh1 avg_logFC: −0.4682
  Cish avg_logFC: −0.2878
  Clec7a avg_logFC: −0.6823
  Clic4 avg_logFC: −0.2836
  Cox17 avg_logFC: −0.2516
  Csrnp1 avg_logFC: −0.2796
  Cxcl2 avg_logFC: −0.3108
  Dazap2 avg_logFC: −0.253
  Ddx3x avg_logFC: −0.2648
  Dusp5 avg_logFC: −0.2644
  Emp1 avg_logFC: −0.3016
  Epb41l2 avg_logFC: −0.2668
  Ero1l avg_logFC: −0.3681
  Errfi1 avg_logFC: −0.2612
  Etv3 avg_logFC: −0.2533
  Fam129b avg_logFC: −0.2732
  Gatm avg_logFC: −0.4728
  Gm13339 avg_logFC: −0.3235
  Gm42418 avg_logFC: −0.3099
  Grina avg_logFC: −0.2527
  Havcr2 avg_logFC: −0.2738
  Hbegf avg_logFC: −0.2883
  Hexim1 avg_logFC: −0.2598
  Hif1a avg_logFC: −0.3016
  Hilpda avg_logFC: −0.3818
  Hk2 avg_logFC: −0.3161
  Hnrnpa2b1 avg_logFC: −0.2507
  Hnrnpu avg_logFC: −0.2502
  Id2 avg_logFC: −0.3235
  Ifi202b avg_logFC: −0.4589
  Ighm avg_logFC: −0.2694
  Il1rn avg_logFC: −0.7087
  Itgax avg_logFC: −0.2718
  Jak2 avg_logFC: −0.3294
  Lars2 avg_logFC: −0.2737
  Lcp1 avg_logFC: −0.279
  Lyz1 avg_logFC: −0.3109
  Mafb avg_logFC: −0.2732
  Malt1 avg_logFC: −0.4497
  Mir6236 avg_logFC: −0.4795
  Mmp14 avg_logFC: −0.4234
  N4bp1 avg_logFC: −0.2723
  Nampt avg_logFC: −0.2539
  Nfkb1 avg_logFC: −0.3187
  Pabpc1 avg_logFC: −0.3065
  Plek avg_logFC: −0.3121
  Prkcd avg_logFC: −0.4952
  Ptgs2 avg_logFC: −0.2589
  Qsox1 avg_logFC: −0.2981
  Rbbp6 avg_logFC: −0.2693
  Rbms1 avg_logFC: −0.306
  Rbpj avg_logFC: −0.2858
  Retnla avg_logFC: −1.013
  Rgcc avg_logFC: −0.3356
  Rhob avg_logFC: −0.3443
  Rnf19b avg_logFC: −0.4071
  Rpl23a avg_logFC: −0.3395
  Scd2 avg_logFC: −0.3267
  Sdc4 avg_logFC: −0.5729
  Slc2a1 avg_logFC: −0.2726
  Slc7a2 avg_logFC: −0.4582
  Slc7a11 avg_logFC: −0.3846
  Slpi avg_logFC: −0.3695
  Smox avg_logFC: −0.2743
  Spp1 avg_logFC: −0.5367
  Srgn avg_logFC: −0.3751
  Tapbp avg_logFC: −0.2542
  Tes avg_logFC: −0.2663
  Tgfbi avg_logFC: −0.2874
  Tgm2 avg_logFC: −0.345
  Timp1 avg_logFC: −0.3922
  Ywhaz avg_logFC: −0.3465
  Zeb2 avg_logFC: −0.2704
  Zfp36l2 avg_logFC: −0.2732
[2]
  AF251705 avg_logFC: 0.2639
  Al607873 avg_logFC: 0.2786
  Apoe avg_logFC: 0.569
  Arl5c avg_logFC: 0.2656
  Bst2 avg_logFC: 0.2961
  C1qa avg_logFC: 0.4214
  C1qb avg_logFC: 0.5188
  C1qc avg_logFC: 0.4208
  Ccrl2 avg_logFC: 0.3263
  Cd14 avg_logFC: 0.2715
  Cd48 avg_logFC: 0.2715
  Cfh avg_logFC: 0.2625
  Chil3 avg_logFC: 1.253
  Ckb avg_logFC: 0.2847
  Cst3 avg_logFC: 0.3446
  Dpep2 avg_logFC: 0.3725
  Fcer1g avg_logFC: 0.3137
  Fcrls avg_logFC: 0.5638
  Gdf3 avg_logFC: 0.2851
  Gm10076 avg_logFC: 0.3757
  Gm10222 avg_logFC: 0.2577
  H2-D1 avg_logFC: 0.2808
  Hint1 avg_logFC: 0.2548
  Id3 avg_logFC: 0.2699
  Ifi27l2a avg_logFC: 0.5245
  Ifitrn2 avg_logFC: 0.374
  Ifitrn3 avg_logFC: 0.2755
  Itga6 avg_logFC: 0.3437
  Itm2b avg_logFC: 0.4104
  Lrg1 avg_logFC: 0.3663
  Ly6c2 avg_logFC: 0.2657
  Lyz2 avg_logFC: 0.2885
  Mgl2 avg_logFC: 0.5712
  Mt1 avg_logFC: 0.4006
  Pf4 avg_logFC: 0.4715
  Rgs10 avg_logFC: 0.2599
  Rpl3 avg_logFC: 0.278
  Rpl9 avg_logFC: 0.2585
  Rpl21 avg_logFC: 0.2567
  Rpl29 avg_logFC: 0.2548
  Rplp0 avg_logFC: 0.333
  Rps2 avg_logFC: 0.2742
  Rps11 avg_logFC: 0.2704
  Rps20 avg_logFC: 0.2922
  S100a8 avg_logFC: 0.7858
  Thbs1 avg_logFC: 0.3189
  Trem2 avg_logFC: 0.4831
  Tspo avg_logFC: 0.2604
CD68+ cells, Genes up-regulated upon E2 treatment, first Tmem176 line
  Tmem176 avg_logFC: 0.3209
CD68+ cells, Genes up-regulated upon E2 treatment, second Tmem176 line
  Tmem176 avg_logFC: 0.3394
E2 group
  inflammation/chemokine genes (Itm2b, C1q) and M2 macrophage markers (Tspo, Vegfa, Tgm2) in CD68+ cells: upregulated
E2 treated tumors
  TAM markers (Trem2, Apoe, Thbs1, Spp1) in CD68+ monocyte/TAM population: expressed
E2 vs placebo
  CD68+ monocytes/TAMs clusters: expansion and significant changes in gene expression
  cluster 1 (M1-like TAMs): remained unchanged
  cluster 3 (inflammatory monocytes): increased
  cluster 8: expansion
  cluster 9 (immune-suppressive phenotype): significant expansion
  cluster 15 (M1-like TAMs): decreased
  cluster 16 (patrolling tissue resident monocytes): increased
  cluster 22: remained unchanged
  cluster 30: expansion
  percentage of Ly6C^hi monocytes (cluster 2): remained the same
